Reference: US8853238B2, “Fused heterocyclic compound and use thereof for pest control” (Sumitomo Chemical Company, Limited, priority 2010, dated 2014)

Columns and labels:
Type in all cases: in vivo
Nilaparvata lugens [1] = assay: Test Example 4: spray on rice seedling, release of Nilaparvata lugens larvae; settings: 144 h, read-out: Control value
Aphis gossypii [2] = assay: Test Example 2: root immersion of cucumber seedling, then inoculation with Aphis gossypii; settings: 168 h; 500 ppm active ingredient; cucumber root part immersed in 5 ml; 30 Aphis gossypii inoculated one day after treatment; examined after further seven days
Procedure: A root part of a cucumber seedling (the first true leaf stage) from which soil had been washed off was immersed in 5 ml of each of the diluted solutions, and one day after treatment, on the cucumber leaf surface was inoculated with 30 Aphis gossypii (whole stage). After further seven days, the number of insect of living Aphis gossypii parasitized on the leaves of the cucumber was examined, and a control value was calculated according to the following equation: Control value (%)={1−(Cb×Tai)/(Cai×Tb))×100 wherein symbols represent as follows: Cb: the number of insects in a non-treated section before treatment, Cai: the number of insects in a non-treated section in observation, Tb: the number of insects in a treated-section before treatment, Tai: the number of insects in a treated-section in observation; wherein the non-treated section represents a section where the test diluted solution prepared by diluting the formulation without the present compound in Formulation Example 5 with the same amount of water as in the treated-section was used.

Nilaparvata lugens [3] = assay: Test Example 5: drench at foot of rice seedling, release of Nilaparvata lugens larvae; settings: soil, 144 h; 500 ppm active ingredient; rice seedling drenched at its foot with 5 ml, kept 7 days; twenty third-fourth instar larvae of Nilaparvata lugens; examined after 6 days
Procedure: On the other hand, a rice seedling (2 weeks after sowing, the second leaf stage) planted in a plastic cup was drenched at its foot with 5 ml of each of the diluted solutions, and kept in a greenhouse of 25° C. for 7 days. Twenty third-fourth instar larvae of Nilaparvata lugens were released, and further kept in the greenhouse for 6 days, then the number of insect of living Nilaparvata lugens parasitized on the rice was examined, and a control value was calculated according to the following equation: Control value (%)={1−(Cb×Tai)/(Cai×Tb))×100 wherein symbols represent as follows: Cb: the number of insects in a non-treated section before treatment, Cai: the number of insects in a non-treated section in observation, Tb: the number of insects in a treated-section before treatment, Tai: the number of insects in a treated-section in observation; wherein the non-treated section represents a section where the test diluted solution prepared by diluting the formulation without the present compound in Formulation Example 5 with the same amount of water as in the treated-section was used.

Aphis gossypii [4] = assay: Test Example 1: spray on cucumber seedling inoculated with Aphis gossypii; settings: topical, 144 h; 500 ppm active ingredient (Formulation Example 5 diluted with water); 20 ml sprayed on cucumber seedling with about 30 Aphis gossypii; six days after spraying
Procedure: On the other hand, on a cucumber seedling (the first true leaf stage) planted in a plastic cup was inoculated with about 30 Aphis gossypii, and leaving it for a day. Twenty ml of each of the above test spray solutions was sprayed on this seedling. Six days after spraying, the number of the surviving Aphis gossypii parasitized on the leaves of the cucumber was examined, and a control value was calculated according to the following equation: Control value (%)={1−(Cb×Tai)/(Cai×Tb))×100 wherein symbols represent as follows: Cb: the number of insects in a non-treated section before treatment, Cai: the number of insects in a non-treated section in observation, Tb: the number of insects in a treated-section before treatment, Tai: the number of insects in a treated-section in observation; wherein the non-treated section represents a section where the test spray solution prepared by diluting the formulation without the present compound in Formulation Example 5 with the same amount of water as in the treated-section was sprayed.

Bemisia tabaci = assay: Test Example 6: spray on tomato seedling with Bemisia tabaci instar larvae; settings: 168 h; 500 ppm active ingredient; 20 ml/cup sprayed on tomato seedling with hatched Bemisia tabaci instar larvae; after 7 days at 25° C.
Procedure: On the other hand, Bemisia tabaci adult was released on a tomato seedling (the third true leaf stage) planted in a polyethylene cup, and made to lay eggs for about 72 hours. The tomato seedling was kept in a greenhouse for 8 days. When instar larvae hatched from the eggs, the above test spray solution was sprayed in the amount of 20 ml/cup. The cup was kept in a greenhouse at 25° C. After the keeping for 7 days, the number of surviving instar larvae on the tomato leaves was examined, and a control value was calculated according to the following equation: Control value (%)={1−(Cb×Tai)/(Cai×Tb))×100 wherein symbols represent as follows: Cb: the number of insects in a non-treated section before treatment, Cai: the number of insects in a non-treated section in observation, Tb: the number of insects in a treated-section before treatment, Tai: the number of insects in a treated-section in observation; wherein the non-treated section represents a section where the test spray solution prepared by diluting the formulation without the present compound in Formulation Example 5 with the same amount of water as in the treated-section was sprayed.

[5] = 500 ppm active ingredient, rice seedling sprayed with 10 ml, third-fourth instar larvae of Nilaparvata lugens, after 6 days at 25° C.

CSc1ccccc1-c1nc2cc(C(F)(F)F)cnc2n1C [Present Compound 1, 3-methyl-2-(2-methylsulfanylphenyl)-6-trifluoromethyl-3H-imidazo[4,5-b]pyridine]
pest or weed control at 500 ppm (Nilaparvata lugens [1]; [5]): ≥ 90%

CC(C)Sc1ccccc1-c1nc2cc(C(F)(F)F)cnc2n1C [Present Compound 12, 2-(2-isopropylsulfanylphenyl)-3-methyl-6-trifluoromethyl-3H-imidazo[4,5-b]pyridine]
pest or weed control at 500 ppm (Nilaparvata lugens [1]; [5]): ≥ 90%

Cn1c(-c2ccccc2[S+]([O-])C(C)(C)C)nc2cc(C(F)(F)F)cnc21 (stereo not drawn) [Present Compound 16, 2-(2-tert-butylsulfinylphenyl)-3-methyl-6-trifluoromethyl-3H-imidazo[4,5-b]pyridine]
pest or weed control at 500 ppm (Aphis gossypii [2]): ≥ 90%

CCOCn1c(-c2ccccc2SCC)nc2cc(C(F)(F)F)cnc21 [Present Compound 33, 3-ethoxymethyl-2-(2-ethylsulfanylphenyl)-6-trifluoromethyl-3H-imidazo[4,5-b]pyridine]
pest or weed control at 500 ppm (Aphis gossypii [2]): ≥ 90%

CCOCn1c(-c2ccccc2SCC)nc2ncc(C(F)(F)F)cc21 [Present Compound 34, 1-ethoxymethyl-2-(2-ethylsulfanylphenyl)-6-trifluoromethyl-1H-imidazo[4,5-b]pyridine]
pest or weed control at 500 ppm (Aphis gossypii [2]): ≥ 90%

CCOCn1c(-c2ccccc2S(=O)(=O)CC)nc2cc(C(F)(F)F)cnc21 [Present Compound 36, 2-(2-ethylsulfonylphenyl)-3-ethoxymethyl-6-trifluoromethyl-3H-imidazo[4,5-b]pyridine]
pest or weed control at 500 ppm (Aphis gossypii [2]): ≥ 90%

CCS(=O)(=O)c1ccccc1-c1nc2cc(C(F)(F)F)cnc2n1COC [Present Compound 38, 2-(2-ethylsulfonylphenyl)-3-methoxymethyl-6-trifluoromethyl-3H-imidazo[4,5-b]pyridine]
pest or weed control at 500 ppm (Nilaparvata lugens [3]): ≥ 90%

CC[S+]([O-])c1ccccc1-c1nc2cc(Br)cnc2n1C (stereo not drawn) [Present Compound 43, 6-bromo-2-(2-ethylsulfinylphenyl)-3-methyl-3H-imidazo[4,5-b]pyridine]
pest or weed control at 500 ppm (Aphis gossypii [2]): ≥ 90%

CC[S+]([O-])c1ccccc1-c1nc2cc(I)cnc2n1C (stereo not drawn) [Present Compound 46, 2-(2-ethylsulfinylphenyl)-6-iodo-3-methyl-3H-imidazo[4,5-b]pyridine]
pest or weed control at 500 ppm (Aphis gossypii [2]): ≥ 90%
pest or weed control at 500 ppm (Aphis gossypii [4]): ≥ 90%
pest or weed control at 500 ppm (Nilaparvata lugens [1]; [5]): ≥ 90%

CC[S+]([O-])c1ccccc1-c1nc2cc(C#N)cnc2n1C (stereo not drawn) [Present Compound 49, 6-cyano-2-(2-ethylsulfinylphenyl)-3-methyl-3H-imidazo[4,5-b]pyridine]
pest or weed control at 500 ppm (Bemisia tabaci): ≥ 90%

CC[S+]([O-])c1ccccc1-c1nc2cc(C(F)F)cnc2n1C (stereo not drawn) [Present Compound 53, 6-difluoromethyl-2-(2-ethylsulfinylphenyl)-3-methyl-3H-imidazo[4,5-b]pyridine]
pest or weed control at 500 ppm (Aphis gossypii [2]): ≥ 90%
pest or weed control at 500 ppm (Aphis gossypii [4]): ≥ 90%

CCSc1ccccc1-c1nc2ncc(C(F)(F)F)cc2n1C [Present Compound 66, 2-(2-ethylsulfanylphenyl)-1-methyl-6-trifluoromethyl-1H-imidazo[4,5-b]pyridine]
pest or weed control at 500 ppm (Aphis gossypii [2]): ≥ 90%
pest or weed control at 500 ppm (Aphis gossypii [4]): ≥ 90%

CCSc1ccccc1-c1nc2cc(C(F)(F)F)ccc2n1C [Present Compound 68, 2-(2-ethylsulfanylphenyl)-1-methyl-5-trifluoromethyl-1H-benzimidazole]
pest or weed control at 500 ppm (Nilaparvata lugens [1]; [5]): ≥ 90%

CC[S+]([O-])c1ccccc1-c1nc2cc(C(F)(F)F)ccc2n1C (stereo not drawn) [Present Compound 69, 2-(2-ethylsulfinylphenyl)-1-methyl-5-trifluoromethyl-1H-benzimidazole]
pest or weed control at 500 ppm (Aphis gossypii [2]): ≥ 90%
pest or weed control at 500 ppm (Nilaparvata lugens [1]; [5]): ≥ 90%

CCS(=O)(=O)c1ccccc1-c1nc2cc(C(F)(F)F)ccc2n1C [Present Compound 70, 2-(2-ethylsulfonylphenyl)-1-methyl-5-trifluoromethyl-1H-benzimidazole]
pest or weed control at 500 ppm (Aphis gossypii [2]): ≥ 90%

CC[S+]([O-])c1ccccc1-c1nc2cc(C(F)(F)F)cc(Cl)c2n1C (stereo not drawn) [Present Compound 72, 7-chloro-2-(2-ethylsulfinylphenyl)-1-methyl-5-trifluoromethyl-1H-benzimidazole]
pest or weed control at 500 ppm (Aphis gossypii [4]): ≥ 90%

CC[S+]([O-])c1ccccc1-c1nc2cc(C(F)(F)F)cnc2o1 (stereo not drawn) [Present Compound 82, 2-(2-ethylsulfinylphenyl)-6-trifluoromethyloxazolo[5,4-b]pyridine]
pest or weed control at 500 ppm (Aphis gossypii [2]): ≥ 90%

CCS(=O)(=O)c1ccccc1-c1nc2cc(C(F)(F)F)cnc2o1 [Present Compound 83, 2-(2-ethylsulfonylphenyl)-6-trifluoromethyloxazolo[5,4-b]pyridine]
pest or weed control at 500 ppm (Aphis gossypii [2]): ≥ 90%
pest or weed control at 500 ppm (Nilaparvata lugens [1]; [5]): ≥ 90%

CSc1ccccc1-c1nc2cc(C(F)(F)F)ccc2s1 [Present Compound 84, 2-(2-methylsulfanylphenyl)-5-trifluoromethylbenzothiazole]
pest or weed control at 500 ppm (Nilaparvata lugens [1]; [5]): ≥ 90%

CCSc1ccccc1-c1nc2cc(C(F)(F)C(F)(F)C(F)(F)F)cnc2n1C [Present Compound 128, 2-(2-ethylsulfanyl-phenyl)-6-heptafluoropropyl-3-methyl-3H-imidazo[4,5-b]pyridine]
pest or weed control at 500 ppm (Nilaparvata lugens [1]; Nilaparvata lugens): ≥ 90%

CCSc1ccccc1-c1nc2ccc(C(F)(F)F)nc2n1C [Present Compound 151, 2-(2-ethylsulfanylphenyl)-3-methyl-5-trifluoromethyl-3H-imidazo[4,5-b]pyridine]
pest or weed control at 500 ppm (Aphis gossypii [4]): ≥ 90%

CC[S+]([O-])c1ccccc1-c1nc2nc(C(F)(F)F)ccc2n1C (stereo not drawn) [compound 167, 2-(2-ethylsulfinylphenyl)-1-methyl-5-trifluoromethyl-1H-imidazo[4,5-b]pyridine]
pest or weed control at 500 ppm (Aphis gossypii [2]): ≥ 90%

CCSc1ccccc1-c1nc2cc(C(F)(F)F)cnc2s1 [compound 183, 2-(2-ethylsulfanylphenyl)-6-(trifluoromethyl)thiazolo[5,4-b]pyridine]
pest or weed control at 500 ppm (Aphis gossypii [4]): ≥ 90%

CCS(=O)(=O)c1ccccc1-c1nc2cc(C(F)(F)F)cnc2s1 [compound 185, 2-(2-ethylsulfonylphenyl)-6-(trifluoromethyl)thiazolo[5,4-b]pyridine]
pest or weed control at 500 ppm (Nilaparvata lugens [3]): ≥ 90%

CCS(=O)(=O)c1ccccc1-c1nc2cc([S+]([O-])C(F)(F)F)cnc2n1C (stereo not drawn) [compound 214, 2-(2-ethylsulfonylphenyl)-6-trifluoromethylsulfinyl-3-methyl-3H-imidazo[4,5-b]pyridine]
pest or weed control at 500 ppm (Nilaparvata lugens [3]): ≥ 90%

CCSc1cc(Br)ccc1-c1nc2cc(C(F)(F)F)cnc2n1C [compound 238, 2-(4-bromo-2-ethylsulfanylphenyl)-3-methyl-6-trifluoromethyl-3H-imidazo[4,5-b]pyridine]
pest or weed control at 500 ppm (Nilaparvata lugens [1]; [5]): ≥ 90%

CCSc1cc(C(F)(F)F)ccc1-c1nc2cc(S(F)(F)(F)(F)F)ccc2n1C [compound 314, 2-(2-ethylsulfanyl-4-trifluoromethyl-phenyl)-1-methyl-5-(pentafluorosulphur)-1H-benzimidazole]
pest or weed control at 500 ppm (Nilaparvata lugens [1]; [5]): ≥ 90%
